Measurements: patent US20250313533A1, “QUINOLINE CARBOXYLIC ACID ESTER COMPOUND AND PREPARATION METHOD AND USE THEREOF” (priority 2019, published 2025)

Legend:
[1] = tested on: pathogenic bacteria causing bacterial wilt in tobacco; experiment: whole plant or invertebrate; type: cell-based, ralstonia; settings: read-out: inhibitory rate
[2] = tested on: black shank in potatoes; experiment: Living crops in vivo protective activity, potatoes (root irrigation); settings: Solanum tuberosum, read-out: efficacy against black shank in potatoes; for pest or weed control at 5 ppm: dosage 5 ppm; for pest or weed control at 10 ppm: dosage 10 ppm
Protocol: Root irrigation was carried out on the potatoes for tests according to the designed concentration of the agents. The dosage for each plant was 200 mL and was kept consistent (also for the control). The black shank bacteria were inoculated on the second day after the application. The results were investigated according to the disease condition.

[3] = tested on: fruit blotch in watermelons; experiment: whole plant or invertebrate; settings: read-out: efficacy against fruit blotch in watermelons
[4] = tested on: indoor potted cucumber seedlings; experiment: Effect of improving growth and development of crops; type: in vivo; design: Rate of growth rate increase (%): concentration or dose not given beside the values; settings: versus blank control; for Rate of chlorophyll content increase (%) / Rate of leaf area increase (%): 14 days after application; for Rate of growth rate increase (%): plant height 14 days after application; for Rate of leaf area increase (%): second leaf
Method in brief: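 Indoor potted cucumber seedlings treated with compound; plant height and second-leaf length and width measured before and 14 days after application. Growth rate, leaf area and their percentage increases derived by formula; leaf chlorophyll content read with a SPAD meter.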

[5] = tested on: pathogenic bacteria causing fruit blotch in watermelons; experiment: In vitro bactericidal activity, fruit blotch in watermelons; type: cell-based, acidovorax; settings: read-out: inhibitory rate; for inhibition at 1 ppm: dosage 1 ppm; for inhibition at 5 ppm: dosage 5 ppm
[6] = tested on: pathogenic bacteria causing black shank in potatoes; experiment: In vitro bactericidal activity, black shank in potatoes; type: cell-based; settings: read-out: inhibitory rate; for inhibition at 1 ppm: dosage 1 ppm; for inhibition at 5 ppm: dosage 5 ppm
[7] = tested on: soft rot in Chinese cabbages; experiment: whole plant or invertebrate; settings: 48 h, read-out: efficacy against soft rot in Chinese cabbages
[8] = tested on: cucumber seedlings; experiment: Safety for plant growth after application; type: in vivo; settings: dosage 200 ppm
Method in brief: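 Using pot-grown cucumber seedlings indoors, we recorded plant height growth rate together with chlorophyll content and leaf area following compound application.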

[9] = tested on: bacterial blight in rice; experiment: whole plant or invertebrate; settings: Oryza sativa, read-out: efficacy against bacterial blight in rice
[10] = tested on: pathogenic bacteria causing black rot in Chinese cabbages; experiment: In vitro bactericidal activity, black rot in Chinese cabbages; type: cell-based, xanthomonas; settings: Xanthomonas, read-out: inhibitory rate; for inhibition at 1 ppm: dosage 1 ppm; for inhibition at 5 ppm: dosage 5 ppm
[11] = tested on: bacterial wilt in tobacco; experiment: whole plant or invertebrate; settings: Nicotiana tabacum, read-out: efficacy against bacterial wilt in tobacco
[12] = tested on: pathogenic bacteria causing stem rot in sweet potatoes; experiment: In vitro bactericidal activity, stem rot in sweet potatoes; type: cell-based, dikia; settings: read-out: inhibitory rate; for inhibition at 1 ppm: dosage 1 ppm; for inhibition at 5 ppm: dosage 5 ppm
[13] = tested on: stem rot in sweet potatoes; experiment: whole plant or invertebrate; settings: read-out: efficacy against stem rot in sweet potatoes
[14] = tested on: pathogenic bacteria causing fire blight in pears; experiment: In vitro bactericidal activity, fire blight in pears; type: cell-based, erwinia; settings: Erwinia, read-out: inhibitory rate; for inhibition at 1 ppm: dosage 1 ppm; for inhibition at 5 ppm: dosage 5 ppm
[15] = tested on: pathogenic bacteria causing bacterial wilt in cassava; experiment: organism not typed; type: cell-based; settings: read-out: inhibitory rate
[16] = tested on: pathogenic bacteria causing bacterial angular leaf spot in cucumbers; experiment: In vitro bactericidal activity, bacterial angular leaf spot in cucumbers; type: cell-based, pseudomonas; settings: read-out: inhibitory rate; for inhibition at 1 ppm: dosage 1 ppm; for inhibition at 5 ppm: dosage 5 ppm
[17] = tested on: pathogenic bacteria causing bacterial blight in rice; experiment: whole plant or invertebrate; type: cell-based, xanthomonas; settings: read-out: inhibitory rate

| SMILES | inhibition at 1 ppm [1] | inhibition at 5 ppm [1] | pest or weed control at 5 ppm [2] | pest or weed control at 10 ppm [2] | pest or weed control at 5 ppm [3] | pest or weed control at 10 ppm [3] | Rate of chlorophyll content increase (%) [4] | Rate of growth rate increase (%) [4] | Rate of leaf area increase (%) [4] | inhibition at 1 ppm [5] | inhibition at 5 ppm [5] | inhibition at 1 ppm [6] | inhibition at 5 ppm [6] | pest or weed control at 5 ppm [7] | pest or weed control at 10 ppm [7] | safety for plant growth (discoloration, necrosis, wilt, malformation) [8] | pest or weed control at 5 ppm [9] | pest or weed control at 10 ppm [9] | inhibition at 1 ppm [10] | inhibition at 5 ppm [10] | other results |
| --- | --- | --- | --- | --- | --- | --- | --- | --- | --- | --- | --- | --- | --- | --- | --- | --- | --- | --- | --- | --- | --- |
| CCOc1cc2c(cc1F)c(=O)c(C(=O)OCCCOC)cn2C1CC1 [Compound 315] | ≥ 90% | ≥ 90% | ≥ 90% | ≥ 90% | ≥ 90% | ≥ 90% | 12% | 9% | 11% | ≥ 90% | ≥ 90% | ≥ 90% | ≥ 90% | ≥ 90% | ≥ 90% | safe for plant growth | ≥ 90% | ≥ 90% | ≥ 90% | ≥ 90% | pest or weed control at 5 ppm [11]: ≥ 90%; pest or weed control at 10 ppm [11]: ≥ 90%; inhibition at 1 ppm [12]: ≥ 90%; inhibition at 5 ppm [12]: ≥ 90%; pest or weed control at 5 ppm [13]: ≥ 90%; pest or weed control at 10 ppm [13]: ≥ 90%; inhibition at 1 ppm [14]: ≥ 90%; inhibition at 5 ppm [14]: ≥ 90%; inhibition at 1 ppm [15]: ≥ 90%; inhibition at 5 ppm [15]: ≥ 90%; inhibition at 1 ppm [16]: ≥ 90%; inhibition at 5 ppm [16]: ≥ 90%; inhibition at 1 ppm [17]: ≥ 90%; inhibition at 5 ppm [17]: ≥ 90% |
| COCCOC(=O)c1cn(C2CC2)c2cc(N3CCCCC3)c(F)cc2c1=O [Compound 432] | ≥ 90% | ≥ 90% | ≥ 90% | ≥ 90% | ≥ 90% | ≥ 90% | 16% | 12% | 16% | ≥ 90% | ≥ 90% | ≥ 90% | ≥ 90% | ≥ 90% | ≥ 90% | safe for plant growth | ≥ 90% | ≥ 90% | ≥ 90% | ≥ 90% | pest or weed control at 5 ppm [11]: ≥ 90%; pest or weed control at 10 ppm [11]: ≥ 90%; inhibition at 1 ppm [12]: ≥ 90%; inhibition at 5 ppm [12]: ≥ 90%; pest or weed control at 5 ppm [13]: ≥ 90%; pest or weed control at 10 ppm [13]: ≥ 90%; inhibition at 1 ppm [14]: ≥ 90%; inhibition at 5 ppm [14]: ≥ 90%; inhibition at 1 ppm [15]: ≥ 90%; inhibition at 5 ppm [15]: ≥ 90%; inhibition at 1 ppm [16]: ≥ 90%; inhibition at 5 ppm [16]: ≥ 90%; inhibition at 1 ppm [17]: ≥ 90%; inhibition at 5 ppm [17]: ≥ 90% |
| CCN(CC)c1cc2c(cc1F)c(=O)c(C(=O)OCCOC)cn2C1CC1 [Compound 420, 2-methoxyethyl 1-cyclopropyl-7-(diethylamino)-6-fluoro-4-oxo-1,4-dihydroquinoline-3-carboxylate] | ≥ 90% | ≥ 90% | ≥ 90% | ≥ 90% | ≥ 90% | ≥ 90% | 9% | 9% | 12% | ≥ 90% | ≥ 90% | ≥ 90% | ≥ 90% | ≥ 90% | ≥ 90% | safe for plant growth | ≥ 90% | ≥ 90% | ≥ 90% | ≥ 90% | pest or weed control at 5 ppm [11]: ≥ 90%; pest or weed control at 10 ppm [11]: ≥ 90%; inhibition at 1 ppm [12]: ≥ 90%; inhibition at 5 ppm [12]: ≥ 90%; pest or weed control at 5 ppm [13]: ≥ 90%; pest or weed control at 10 ppm [13]: ≥ 90%; inhibition at 1 ppm [14]: ≥ 90%; inhibition at 5 ppm [14]: ≥ 90%; inhibition at 1 ppm [15]: ≥ 90%; inhibition at 5 ppm [15]: ≥ 90%; inhibition at 1 ppm [16]: ≥ 90%; inhibition at 5 ppm [16]: ≥ 90%; inhibition at 1 ppm [17]: ≥ 90%; inhibition at 5 ppm [17]: ≥ 90% |
| COCCCOC(=O)c1cn(C2CC2)c2cc(OC)c(F)cc2c1=O [Compound 323] | ≥ 90% | ≥ 90% | ≥ 90% | ≥ 90% | ≥ 90% | ≥ 90% | 19% | 13% | 13% | ≥ 90% | ≥ 90% | ≥ 90% | ≥ 90% | ≥ 90% | ≥ 90% | safe for plant growth | ≥ 90% | ≥ 90% | ≥ 90% | ≥ 90% | pest or weed control at 5 ppm [11]: ≥ 90%; pest or weed control at 10 ppm [11]: ≥ 90%; inhibition at 1 ppm [12]: ≥ 90%; inhibition at 5 ppm [12]: ≥ 90%; pest or weed control at 5 ppm [13]: ≥ 90%; pest or weed control at 10 ppm [13]: ≥ 90%; inhibition at 1 ppm [14]: ≥ 90%; inhibition at 5 ppm [14]: ≥ 90%; inhibition at 1 ppm [15]: ≥ 90%; inhibition at 5 ppm [15]: ≥ 90%; inhibition at 1 ppm [16]: ≥ 90%; inhibition at 5 ppm [16]: ≥ 90%; inhibition at 1 ppm [17]: ≥ 90%; inhibition at 5 ppm [17]: ≥ 90% |
